Assays:
[1] = tested on: normal primary NK cells, pool 3 (3 donors) (IL-2 2.5 ng/mL); assay: percent inhibition of viability; higher = more inhibition; details: 72 h
YT (IL-2 2.5 ng/mL) [2] = assay: as above; details: 72 h
NK-YS (IL-2 2.5 ng/mL) [3] = assay: as above; details: 72 h
KHYG-1 (IL-2 2.5 ng/mL) [4] = assay: as above; details: 72 h
[5] = tested on: normal primary NK cells, pool 1 (3 donors), resting (IL-2 0 ng/mL); assay: as above; details: 72 h
KAI3 (IL-2 2.5 ng/mL) [6] = assay: as above; details: 72 h
NK-92 (IL-2 2.5 ng/mL) [7] = assay: as above; details: 72 h
NKL (IL-2 2.5 ng/mL) [8] = assay: as above; details: 72 h
[9] = tested on: normal primary NK cells, pool 2 (3 donors) (IL-2 2.5 ng/mL); assay: as above; details: 72 h
DERL-7 (IL-2 2.5 ng/mL) [10] = assay: as above; details: 72 h
SNK-6 (IL-2 2.5 ng/mL) [11] = assay: as above; details: 72 h
[12] = tested on: normal primary NK cells, pool 1 (3 donors) (IL-2 2.5 ng/mL); assay: as above; details: 72 h
IMC-1 (IL-2 20 ng/mL) [13] = assay: as above; details: 72 h
[14] = tested on: normal NK cells expanded with K562-aAPC; assay: drug sensitivity score (DSS) (DSS units); higher = more sensitive; extreme values may be limits of the assay; details: 72 h; IL-2 2.5 ng/mL
Description: (§1)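 Drug sensitivity and resistance testing on K562-aAPC-expanded normal NK cells: 5 concentrations (10-fold steps over a 10,000-fold range), 72 h at 37 °C, viability by CellTiter-Glo normalised to DMSO and benzethonium chloride controls; DSS from the fitted curve.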

[15] = tested on: normal primary NK cells, pool 3 (3 donors) (IL-2 2.5 ng/mL); assay: as above; details: 72 h
YT (IL-2 2.5 ng/mL) [16] = assay: as above; details: 72 h
NK-YS (IL-2 2.5 ng/mL) [17] = assay: as above; details: 72 h
KHYG-1 (IL-2 2.5 ng/mL) [18] = assay: as above; details: 72 h
[19] = tested on: normal primary NK cells, pool 1 (3 donors), resting (IL-2 0 ng/mL); assay: as above; details: 72 h
KAI3 (IL-2 2.5 ng/mL) [20] = assay: as above; details: 72 h
NK-92 (IL-2 2.5 ng/mL) [21] = assay: as above; details: 72 h
NKL (IL-2 2.5 ng/mL) [22] = assay: as above; details: 72 h
[23] = tested on: normal primary NK cells, pool 2 (3 donors) (IL-2 2.5 ng/mL); assay: as above; details: 72 h
DERL-7 (IL-2 2.5 ng/mL) [24] = assay: as above; details: 72 h
SNK-6 (IL-2 2.5 ng/mL) [25] = assay: as above; details: 72 h
[26] = tested on: normal primary NK cells, pool 1 (3 donors) (IL-2 2.5 ng/mL); assay: as above; details: 72 h
IMC-1 (IL-2 20 ng/mL) [27] = assay: as above; details: 72 h
[28] = tested on: normal NK cells expanded with K562-aAPC; assay: percent inhibition of viability; higher = more inhibition; details: 72 h, IL-2 2.5 ng/mL
Description: as §1

O=NN(CCCl)C(=O)NC1CCCCC1 [Lomustine] (max concentration tested 10000 nM)
percent inhibition of viability [%]
Details | 1 nM | 10 nM | 100 nM | 1000 nM | 10000 nM
DERL-7 (IL-2 2.5 ng/mL) [10] | -0.56 | -0.17 | -2.85 | -3.2 | -5.37
IMC-1 (IL-2 20 ng/mL) [13] | -5.94 | -3.37 | -4.39 | -5.66 | -4.09
KAI3 (IL-2 2.5 ng/mL) [6] | -9.82 | 0.25 | -6.64 | -4.27 | -3.54
KHYG-1 (IL-2 2.5 ng/mL) [4] | -7.65 | -1.52 | -3.58 | -1.68 | 0.4
NK-92 (IL-2 2.5 ng/mL) [7] | -9.96 | -19 | -9.06 | -13.7 | -15.8
NK-YS (IL-2 2.5 ng/mL) [3] | -6.33 | -2.26 | -1.76 | 0.49 | 4.09
NKL (IL-2 2.5 ng/mL) [8] | -15 | -16.4 | -19.5 | -23.3 | -24.5
SNK-6 (IL-2 2.5 ng/mL) [11] | 10.8 | 20.4 | -2.23 | 6.58 | -11
YT (IL-2 2.5 ng/mL) [2] | -3.7 | -2.05 | -4.42 | -2.81 | 0.06
[1] | -11.8 | -8.98 | -8.45 | -6.32 | -4.26
[5] | -9.1 | -11.4 | -22.4 | 13.4 | 3.51
[9] | -12.4 | -5.7 | -9.1 | -11.4 | -2.45
[12] | -1.98 | -5.39 | -3.98 | -5.42 | -0.06
[28] | -0.77 | -4.05 | -3.71 | -4.93 | -6.08

Details | drug sensitivity score
DERL-7 (IL-2 2.5 ng/mL) [24] | 0
IMC-1 (IL-2 20 ng/mL) [27] | 0
KAI3 (IL-2 2.5 ng/mL) [20] | 0
KHYG-1 (IL-2 2.5 ng/mL) [18] | 0
NK-92 (IL-2 2.5 ng/mL) [21] | 0
NK-YS (IL-2 2.5 ng/mL) [17] | 0
NKL (IL-2 2.5 ng/mL) [22] | 0
SNK-6 (IL-2 2.5 ng/mL) [25] | 0
YT (IL-2 2.5 ng/mL) [16] | 0
[14] | 0
[15] | 0
[19] | 0
[23] | 0
[26] | 0

CCNC(=O)c1noc(-c2cc(C(C)C)c(O)cc2O)c1-c1ccc(CN2CCOCC2)cc1 [Luminespib] (max concentration tested 1000 nM)
percent inhibition of viability [%]
Details | 0.1 nM | 1 nM | 10 nM | 100 nM | 1000 nM
DERL-7 (IL-2 2.5 ng/mL) [10] | 2.4 | 1.89 | 99.7 | 100 | 100
IMC-1 (IL-2 20 ng/mL) [13] | -0.63 | -3.7 | 51.6 | 99.6 | 99.7
KAI3 (IL-2 2.5 ng/mL) [6] | 1.34 | 8.03 | 88.8 | 100 | 97.7
KHYG-1 (IL-2 2.5 ng/mL) [4] | -1.01 | 1.79 | 47.7 | 102 | 99.4
NK-92 (IL-2 2.5 ng/mL) [7] | -9.62 | -1.81 | 66.9 | 97.9 | 95
NK-YS (IL-2 2.5 ng/mL) [3] | -0.03 | 4.35 | 89.3 | 98.7 | 97.7
NKL (IL-2 2.5 ng/mL) [8] | -1.62 | -1.66 | 87.8 | 86.7 | 85.5
SNK-6 (IL-2 2.5 ng/mL) [11] | -5.65 | 9.52 | 35.8 | 85.2 | 87.3
YT (IL-2 2.5 ng/mL) [2] | -1.24 | -3.01 | 7.32 | 89.6 | 92.1
[1] | -20 | -6.55 | 68.1 | 75.4 | 77.5
[5] | -4.56 | -1.24 | 21.2 | 46.8 | 48.1
[9] | -11.3 | 0.74 | 74.2 | 74.9 | 76
[12] | -3.81 | 5.41 | 76.8 | 82.5 | 86.2
[28] | -2.12 | -2.95 | 97.5 | 97.4 | 97.4

Details | drug sensitivity score
DERL-7 (IL-2 2.5 ng/mL) [24] | 30.7
IMC-1 (IL-2 20 ng/mL) [27] | 24.3
KAI3 (IL-2 2.5 ng/mL) [20] | 29.8
KHYG-1 (IL-2 2.5 ng/mL) [18] | 24
NK-92 (IL-2 2.5 ng/mL) [21] | 25.4
NK-YS (IL-2 2.5 ng/mL) [17] | 29.1
NKL (IL-2 2.5 ng/mL) [22] | 26.9
SNK-6 (IL-2 2.5 ng/mL) [25] | 19.6
YT (IL-2 2.5 ng/mL) [16] | 17.6
[14] | 29.5
[15] | 22.2
[19] | 11.5
[23] | 23.5
[26] | 25.7

— the supplement of paper PMC5908809
